The values that follow come from patent publication US20200246317A1, “METHODS OF TREATING DIABETIC NEUROPATHY WITH A THIAZOLINE ANTI-HYPERALGESIC AGENT” (CERSCI THERAPEUTICS, INC., priority 2019, published 2020).

Each structure is given as a SMILES string. Structures can show the parent of a compound that is named as a salt.

In data set [1] the target is T1, OAT1 (Homo sapiens, UniProt Q4U2R8).
T1 construct: expressed in transfected cells; host or cells: HEK293 cells
T1 sequence (Q4U2R8 1-563): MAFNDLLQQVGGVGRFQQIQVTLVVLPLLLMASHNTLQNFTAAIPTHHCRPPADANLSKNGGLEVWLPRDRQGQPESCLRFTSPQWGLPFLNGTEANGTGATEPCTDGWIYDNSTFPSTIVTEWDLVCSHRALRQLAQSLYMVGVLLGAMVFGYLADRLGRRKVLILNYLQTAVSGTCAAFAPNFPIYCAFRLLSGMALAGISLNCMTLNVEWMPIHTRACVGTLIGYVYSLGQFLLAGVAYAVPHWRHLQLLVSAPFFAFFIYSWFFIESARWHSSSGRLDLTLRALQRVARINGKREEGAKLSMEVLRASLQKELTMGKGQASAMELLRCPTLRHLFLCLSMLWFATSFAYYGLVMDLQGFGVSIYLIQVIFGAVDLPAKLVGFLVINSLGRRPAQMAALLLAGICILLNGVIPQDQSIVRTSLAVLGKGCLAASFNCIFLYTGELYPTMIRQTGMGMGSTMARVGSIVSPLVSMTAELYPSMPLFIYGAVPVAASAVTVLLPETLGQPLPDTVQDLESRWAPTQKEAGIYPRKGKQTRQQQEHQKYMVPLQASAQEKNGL
The data set is described as follows: Inhibition of transporters, OAT1 (HEK293 cells). The format is in vitro ADME.

Data set [2] concerns hypersensitivity caused by an injury/insult such as an incision or irritant. In words: Hypersensitivity caused by an injury/insult (incision or irritant). The settings on record: in vivo.
The nature of data set [3]: Stability of dose formulations for GLP toxicology studies (0.5% HPMC). The format is physicochemical. To be noted: 1.0 to 200 mg/mL in 0.5% HPMC. How it is done: Formulation analysis and bioanalytical methods were validated for all GLP studies. Formulation of Compound 1 in water was validated over a range of 1 to 200 mg/mL using HPLC and in 0.5% hydroxypropyl methylcellulose (HPMC) over the same range.
Dose formulation analysis for all good laboratory practice (GLP) general toxicology studies was performed using a validated high-performance liquid chromatography (HPLC)/ultraviolet (UV) analytical method (2750-001-001 Dose Formulation Method 1). The vehicle used in the in vivo toxicology studies was 0.5% HPMC). The analytical method utilized HPLC with monitoring at 227 nm with an isocratic mobile phase of methanol with the column temperature set to 25° C. Linearity over a range of 1.0 to 200 mg/mL was observed. Dose formulations over this range were stable at room temperature for up to 13 days and were stable when stored frozen at −20° C. for up to 85 days.

Data set [4] concerns the target T2, OATP1B1 (Homo sapiens, UniProt Q9Y6L6).
T2 construct: expressed in transfected cells; host or cells: HEK293 cells
T2 sequence (Q9Y6L6 1-691): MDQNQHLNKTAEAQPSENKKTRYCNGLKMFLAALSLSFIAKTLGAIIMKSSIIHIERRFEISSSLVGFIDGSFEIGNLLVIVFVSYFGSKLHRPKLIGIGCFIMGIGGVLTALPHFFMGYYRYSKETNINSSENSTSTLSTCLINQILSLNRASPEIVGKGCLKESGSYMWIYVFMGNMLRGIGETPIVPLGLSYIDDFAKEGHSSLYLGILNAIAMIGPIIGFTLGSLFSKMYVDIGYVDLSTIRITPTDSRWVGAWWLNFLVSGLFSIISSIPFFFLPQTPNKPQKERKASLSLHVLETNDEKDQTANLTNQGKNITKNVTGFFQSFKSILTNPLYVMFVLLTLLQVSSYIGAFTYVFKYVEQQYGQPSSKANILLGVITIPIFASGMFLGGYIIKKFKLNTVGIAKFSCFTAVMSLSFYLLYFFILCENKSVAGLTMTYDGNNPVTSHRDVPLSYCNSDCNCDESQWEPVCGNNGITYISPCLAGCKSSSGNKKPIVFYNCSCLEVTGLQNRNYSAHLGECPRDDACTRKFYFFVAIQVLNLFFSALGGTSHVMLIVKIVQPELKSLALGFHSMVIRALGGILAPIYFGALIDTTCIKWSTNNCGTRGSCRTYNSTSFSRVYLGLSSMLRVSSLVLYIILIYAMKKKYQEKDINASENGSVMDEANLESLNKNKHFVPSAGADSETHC
In words: Inhibition of transporters, OATP1B1 (HEK293 cells). The format is in vitro ADME.

Data set [5] concerns streptozotocin (STZ)-induced diabetic rats. The data set is described as follows: Mechanical thresholds in streptozotocin (STZ)-induced diabetic rats. Format: in vivo, rat. The procedure:
Experiments were conducted to determine the effect of Compound 1 in streptozotocin (STZ)-induced diabetic rats. In the first experiment, after obtaining mechanical threshold baselines, STZ (50 mg/kg IV) was administered (Day −7). Two days later, blood glucose levels were measured and animals that were hyperglycemic (>250 mg/dL) continued in the study. On Day 0 the baseline for mechanical thresholds prior to dosing with test articles was established for the rats. Compound 1 (10, 30, and 100 mg/kg PO), gabapentin (100 mg/kg PO) or vehicle was then administered daily for 5 days. On Day 0 mechanical thresholds were obtained at 1, 3, and 6 h post-dose. On Day 1 mechanical thresholds were measured immediately prior to dosing and then 3 h post-dose. The same regimen was followed on Day 3.
In a subsequent study, the same STZ paradigm was followed. However, in addition to the 100 mg/kg Compound 1 group, two additional cohorts received the Compound 1 100 mg/kg dose split into two or three doses per day with 50 mg/kg BID and 33 mg/kg TID. In addition to the gabapentin (100 mg/kg PO) group, a separate cohort received duloxetine (30 mg/kg PO). Additionally, in this study mechanical threshold testing was implemented every day immediately prior to dosing and 2 h post-dose for 7 days.

Data set [6] deals with uninjured animals. In words: Normal sensation in uninjured animals. The format is in vivo. The settings on record: given to uninjured animals.
In data set [7] the test system is lactoperoxidase oxidation (mediated by peroxide). In words: Lactoperoxidase oxidation (mediated by peroxide). The settings on record: physiological conditions (neutral pH). Format: biochemical.
Data set [8] in a line: Models of protein nitration. Format: biochemical. The settings on record: physiological conditions (neutral pH).
Data set [9] in a line: Gravimetric Vapor Sorption (GVS). Format: physicochemical. An excerpt:
The sample is hygroscopic.

A short description of data set [10]: Stability of dose formulations for in vitro genetic toxicology assays. To be noted: 0.001 to 50 mg/mL. Format: physicochemical. The procedure: In addition, formulation analysis for in vitro genetic toxicology studies was performed using a validated HPLC/UV analytical method (2750-001-001 Dose Formulation Method No. 2) with linearity over a range of 0.001 to 50 mg/mL. Dose formulations for in vitro assays were stable at room temperature for up to 1 day and when stored frozen at −20° C. for up to 45 days.

Data set [11] is described as follows: Stability in hepatocytes, rat. The format is in vitro ADME.

As for `CC1(C)SC(Nc2ccccc2O)=N[C@@H]1C(=O)O` [Compound 1, (R)-2-(2-hydroxyphenylamino)-5,5-dimethyl-4,5-dihydrothiazole-4-carboxylic acid mono-hydrochloride], the “inhibition of OAT1 (in words)” value in data set [1] was “does not inhibit”. The reversal of hypersensitivity result in data set [2] is “complete reversal of hypersensitivity”. The “stability of dose formulations, time stable” value in data set [3] (room temperature) is reported as “up to 13 days”; in data set [3] (stored frozen at −20° C.), “up to 85 days”. In data set [4], the “inhibition of OATP1B1 (in words)” value is “does not inhibit”. Moreover, in [5] (first experiment, 10, 30, 100 mg/kg PO daily, subsequent days), the “reversal of allodynia (mechanical threshold relative to vehicle)” value was “statistically-significant”. For the same compound, the “reversal of allodynia (mechanical threshold)” value in data set [5] (first experiment, Compound 1 10, 30, 100 mg/kg PO, gabapentin 100 mg/kg PO daily, Day 0 (gabapentin: 1 h post-dose on Day 0 and all time points thereafter)) was “non-significant reversal of allodynia”; in data set [5] (subsequent study, 7 days, Compound 1 100 mg/kg QD, 50 mg/kg BID, 33 mg/kg TID, gabapentin 100 mg/kg PO, duloxetine 30 mg/kg PO), “reversed allodynia upon continued daily dosing reaching statistical significance from Day 1 and beyond”. The “effect on mechanical threshold compared with gabapentin” value in data set [5] (first experiment, subsequent days, gabapentin 100 mg/kg PO) was “comparable to gabapentin”. The effect on allodynia result in [5] (rat model of diabetic neuropathy, streptozotocin-induced (overview)) was “alleviates allodynia”. For the same compound, the “difference between dosing regimens” value in data set [5] (subsequent study, 100 mg/kg QD vs 50 mg/kg BID vs 33 mg/kg TID) was “no clear difference”. The “effect on normal sensation” value in data set [6] is recorded as “does not alter normal sensation”. The removal of peroxynitrite entry in data set [7] and in [8] was “catalytically remove peroxynitrite” in each case. In [9], the hygroscopicity result is on record as “hygroscopic”. Further, the “stability of dose formulations for in vitro assays, time stable” value is on record as “up to 1 day” in [10] (room temperature) and “up to 45 days” in [10] (stored frozen at −20° C.). Moreover, the stability in hepatocytes result in [11] was “stable”.
